Series [1] addresses T1, LexA repressor (Escherichia coli) (UniProt P0A7C2).
T1 sequence (whole entry): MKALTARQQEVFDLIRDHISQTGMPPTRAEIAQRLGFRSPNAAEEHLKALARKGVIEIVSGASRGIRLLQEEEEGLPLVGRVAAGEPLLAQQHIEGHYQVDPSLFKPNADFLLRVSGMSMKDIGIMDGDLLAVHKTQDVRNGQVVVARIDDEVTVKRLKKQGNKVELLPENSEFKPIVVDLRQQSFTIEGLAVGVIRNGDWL
The experiment in a line: Induction of Escherichia coli K12 MG1655 lexA promotor measured at 30 mins interval for 20 hrs by fluorescence assay relative to control. The following applies: Escherichia coli str. K-12 substr. MG1655.

Series [2] concerns the target T2, DNA repair protein RecN (Escherichia coli) (UniProt P05824).
T2 sequence (whole entry): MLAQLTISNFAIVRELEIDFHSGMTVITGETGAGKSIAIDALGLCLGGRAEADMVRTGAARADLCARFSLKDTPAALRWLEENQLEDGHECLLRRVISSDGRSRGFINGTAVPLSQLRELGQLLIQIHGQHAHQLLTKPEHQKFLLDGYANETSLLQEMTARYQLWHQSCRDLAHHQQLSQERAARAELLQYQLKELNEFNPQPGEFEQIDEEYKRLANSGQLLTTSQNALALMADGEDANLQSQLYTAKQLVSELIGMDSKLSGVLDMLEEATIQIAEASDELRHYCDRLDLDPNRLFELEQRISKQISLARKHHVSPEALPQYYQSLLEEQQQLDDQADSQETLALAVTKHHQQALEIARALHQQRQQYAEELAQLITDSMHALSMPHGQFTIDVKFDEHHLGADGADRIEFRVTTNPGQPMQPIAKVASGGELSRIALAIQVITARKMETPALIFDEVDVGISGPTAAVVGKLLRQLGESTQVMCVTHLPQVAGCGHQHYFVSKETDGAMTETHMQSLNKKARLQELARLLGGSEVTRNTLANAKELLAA
The experiment in a line: Induction of Escherichia coli K12 MG1655 recN promotor measured at 30 mins interval for 20 hrs by fluorescence assay relative to control. Particulars: Escherichia coli str. K-12 substr. MG1655.

Series [3] deals with T3, Cell division inhibitor SulA (Escherichia coli K-12) (UniProt P0AFZ5).
T3 sequence (whole entry): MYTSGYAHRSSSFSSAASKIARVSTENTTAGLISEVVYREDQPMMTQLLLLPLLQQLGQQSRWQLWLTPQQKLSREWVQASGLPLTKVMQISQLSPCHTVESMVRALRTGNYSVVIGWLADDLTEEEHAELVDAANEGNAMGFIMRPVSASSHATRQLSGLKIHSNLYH
The experiment in a line: Induction of Escherichia coli K12 MG1655 sulA promotor measured at 30 mins interval for 20 hrs by fluorescence assay relative to control. Particulars: Escherichia coli str. K-12 substr. MG1655.

Series [4] deals with T4, Protein RecA (Escherichia coli K-12) (UniProt P0A7G6).
T4 sequence (whole entry): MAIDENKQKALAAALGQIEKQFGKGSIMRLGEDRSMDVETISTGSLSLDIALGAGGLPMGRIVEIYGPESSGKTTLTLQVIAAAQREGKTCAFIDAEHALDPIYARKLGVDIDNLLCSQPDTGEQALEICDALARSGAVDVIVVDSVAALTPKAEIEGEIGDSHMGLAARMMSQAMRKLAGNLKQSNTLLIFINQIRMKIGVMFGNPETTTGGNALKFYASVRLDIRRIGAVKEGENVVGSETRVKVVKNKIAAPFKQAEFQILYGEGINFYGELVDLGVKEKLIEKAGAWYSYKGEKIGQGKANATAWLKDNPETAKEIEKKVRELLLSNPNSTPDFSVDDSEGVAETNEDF
The experiment in a line: Induction of Escherichia coli K12 MG1655 recA promotor measured at 30 mins interval for 20 hrs by fluorescence assay relative to control. Particulars: Escherichia coli str. K-12 substr. MG1655.

Series [5] relates to Enterococcus faecalis. The experiment in a line: Antibacterial activity against vancomycin sensitive Enterococcus faecalis NCTC 775 by microdilution broth method. In kind it is functional. (In general: In broth dilution the organism is exposed to a series of concentrations in liquid medium.)
The test system of series [6] is Acinetobacter baumannii. The series can be described thus: Antimicrobial activity against multidrug-resistant Acinetobacter baumannii AYE by microdilution broth method. The format is functional.
Series [7] relates to DNA. The experiment in a line: Stabilization of 5'-FAM-TAT-AGA-TAT-AGA-TAT-TTT-ATA-TCT-ATA-TCT-ATA-3'-TAMRA DNA (unknown origin) assessed as reduction in change in melting temperature at 1:1 to 5:1 ligand to DNA ratio measured after 3 hrs by FRET-based assay relative to control. In kind it is ADME, nucleic-acid assay.
Series [8] has as its system Pseudomonas aeruginosa. The series can be described thus: Antimicrobial activity against Pseudomonas aeruginosa PAO1 by microdilution broth method. The format is functional.
In series [9] the test system is Staphylococcus aureus. The series can be described thus: Antibacterial activity against methicillin sensitive Staphylococcus aureus NCTC 6571 by microdilution broth method. In kind it is functional.
Series [10] deals with Staphylococcus aureus. The experiment in a line: Antibacterial activity against methicillin resistant Staphylococcus aureus NCTC 13616 by microdilution broth method. In kind it is functional.
The test system of series [11] is Pseudomonas aeruginosa. The experiment in a line: Antimicrobial activity against multidrug-resistant Pseudomonas aeruginosa NCTC 13437 by microdilution broth method. In kind it is functional.
In series [12] the test system is Enterococcus faecalis. The experiment in a line: Antibacterial activity against vancomycin resistant Enterococcus faecalis NCTC 12201 by microdilution broth method. In kind it is functional.
In series [13] the test system is Klebsiella pneumoniae. The series can be described thus: Antimicrobial activity against multidrug-resistant Klebsiella pneumoniae NCTC 13368 by microdilution broth method. In kind it is functional.
Series [14] concerns Staphylococcus aureus. The experiment in a line: Antibacterial activity against methicillin resistant Staphylococcus aureus NCTC 13277 by microdilution broth method. The format is functional.
Series [15] relates to Klebsiella pneumoniae. The experiment in a line: Antimicrobial activity against Klebsiella pneumoniae M6 by microdilution broth method. In kind it is functional.
Series [16] can be described thus: Cytotoxicity against human WI38 cells assessed as cell viability at 20 uM measured after 24 hrs by MTT assay relative to control. In kind it is cell-based, WI-38. Particulars: read-out: Activity. (In general: Formazan colour is commonly taken as a measure of viable cells.)
In series [17] the test system is DNA. The series can be described thus: Stabilization of 5'-FAM-TAT-ATA-TAG-ATA-TTT-TTT-TAT-CTA-TAT-ATA-3'-TAMRA DNA (unknown origin) assessed as reduction in change in melting temperature at 1:1 to 5:1 ligand to DNA ratio measured after 3 hrs by FRET-based assay relative to control. In kind it is ADME, nucleic-acid assay.
For series [18], the system named is Acinetobacter baumannii. The series can be described thus: Antimicrobial activity against Acinetobacter baumannii ATCC 17978 by microdilution broth method. The format is functional.
In another series the test system is Enterococcus faecium. The series can be described thus: Antibacterial activity against vancomycin resistant Enterococcus faecium NCTC 12204 by microdilution broth method. In kind it is functional.

The structures appear in SMILES notation. Converted amounts (≈) assume the structure as drawn. The source made the active and inactive calls. Where only a bound is given, the exact number is not on record here.

For `CC1(C)S[C@@H]2[C@H](NC(=O)[C@H](N)c3ccccc3)C(=O)N2[C@H]1C(=O)O`, the outcome in series [1], in series [2], in series [3] and in [4] was inactive.
As for `COC(=O)c1cc(NC(=O)c2cc(NC(=O)CCCOc3cc4c(cc3OC)C(=O)N3CCC[C@H]3C=N4)cn2C)cn1C`, the minimum inhibitory concentration (MIC) in the series with Enterococcus faecalis [5] was 1 µg/mL (≈ 1.69 µM); against Acinetobacter baumannii [6], 128 µg/mL (≈ 217 µM); in the series on Pseudomonas aeruginosa [8], 128 µg/mL (≈ 217 µM); in the series with Staphylococcus aureus [9] it was 0.5 µg/mL (≈ 0.847 µM); against Staphylococcus aureus [10], 1 µg/mL (≈ 1.69 µM); against Pseudomonas aeruginosa [11], more than 128 µg/mL. Further, the MIC in the series on Enterococcus faecalis [12] was 0.5 µg/mL (≈ 0.847 µM); with Klebsiella pneumoniae [13], more than 128 µg/mL; against Staphylococcus aureus [14], 2 µg/mL (≈ 3.39 µM); with Klebsiella pneumoniae [15], more than 128 µg/mL; in the series with Acinetobacter baumannii [18] it was 128 µg/mL (≈ 217 µM); against Enterococcus faecium it was 0.5 µg/mL (≈ 0.847 µM). Moreover, the fold change (FC) with DNA [7] and in the series on DNA [17] was 3 to 4 each time. In series [16], the viability at 24 h, 20 µM was 35%.
For the compound `CO[C@@H]1[C@@H](OC(N)=O)[C@@H](O)[C@H](Oc2ccc3c(O)c(NC(=O)c4ccc(O)c(CC=C(C)C)c4)c(=O)oc3c2C)OC1(C)C`, the fold change (FC) in series [1] lay in the range of 5 to 13; in series [2], 14 to 32; in series [3], 17 to 41; in series [4] it was 20 to 35.
For `COc1c(N2C[C@@H]3CCCN[C@@H]3C2)c(F)cc2c(=O)c(C(=O)O)cn(C3CC3)c12` the same measures were 5 to 13, 14 to 32, 17 to 41 and 20 to 35.
In the case of `CCn1cc(C(=O)O)c(=O)c2cc(F)c(N3CCNCC3)cc21`, the fold change (FC) in series [1] lay within 5 to 13; in series [2], 14 to 32; in [3] it was 17 to 41; in [4], 20 to 35.
In the same order, the values of `C[C@H]1COc2c(N3CCN(C)CC3)c(F)cc3c(=O)c(C(=O)O)cn1c23` are 5 to 13, 14 to 32, 17 to 41 and 20 to 35.
For the compound `C[C@H]1c2cccc(O)c2C(=O)C2=C(O)[C@]3(O)C(=O)C(C(N)=O)=C(O)[C@@H](N(C)C)[C@@H]3[C@@H](O)[C@@H]21`, the outcome in series [1], in [2], in [3] and in [4] was inactive.
For the compound `CO[C@H]1/C=C/O[C@@]2(C)Oc3c(C)c(O)c4c(O)c(c(/C=N/N5CCN(C)CC5)c(O)c4c3C2=O)NC(=O)/C(C)=C\C=C\[C@H](C)[C@H](O)[C@@H](C)[C@@H](O)[C@@H](C)[C@H](OC(C)=O)[C@@H]1C`, the outcome in series [1], in series [2], in series [3] and in series [4] was inactive.

By MIC is commonly meant the smallest concentration in the dilution series that meets the test's criterion for growth inhibition. Higher therefore signals weaker potency.

Source of the values: ChEMBL document CHEMBL4610120, “New Broad-Spectrum Antibiotics Containing a Pyrrolobenzodiazepine Ring with Activity against Multidrug-Resistant Gram-Negative Bacteria” (J Med Chem, 2020).
